Tests used:
[1] = target: T1, human glucocorticoid receptor-α [GRX] isoform (Homo sapiens, UniProt P04150); test: Radioligand binding with human glucocorticoid receptor cytosol ([3H]-dexamethasone competition); settings: GRX cytosol expressed in insect SF21 cells, [3H]-Dex ~0.9 nM, 4° C. overnight; Ki by Cheng-Prusoff, KL ~[…]; read-out: Ki (nM) GR
T1 construct: host or cells: insect SF21 cells (baculovirus)
T1 sequence (P04150 1-777): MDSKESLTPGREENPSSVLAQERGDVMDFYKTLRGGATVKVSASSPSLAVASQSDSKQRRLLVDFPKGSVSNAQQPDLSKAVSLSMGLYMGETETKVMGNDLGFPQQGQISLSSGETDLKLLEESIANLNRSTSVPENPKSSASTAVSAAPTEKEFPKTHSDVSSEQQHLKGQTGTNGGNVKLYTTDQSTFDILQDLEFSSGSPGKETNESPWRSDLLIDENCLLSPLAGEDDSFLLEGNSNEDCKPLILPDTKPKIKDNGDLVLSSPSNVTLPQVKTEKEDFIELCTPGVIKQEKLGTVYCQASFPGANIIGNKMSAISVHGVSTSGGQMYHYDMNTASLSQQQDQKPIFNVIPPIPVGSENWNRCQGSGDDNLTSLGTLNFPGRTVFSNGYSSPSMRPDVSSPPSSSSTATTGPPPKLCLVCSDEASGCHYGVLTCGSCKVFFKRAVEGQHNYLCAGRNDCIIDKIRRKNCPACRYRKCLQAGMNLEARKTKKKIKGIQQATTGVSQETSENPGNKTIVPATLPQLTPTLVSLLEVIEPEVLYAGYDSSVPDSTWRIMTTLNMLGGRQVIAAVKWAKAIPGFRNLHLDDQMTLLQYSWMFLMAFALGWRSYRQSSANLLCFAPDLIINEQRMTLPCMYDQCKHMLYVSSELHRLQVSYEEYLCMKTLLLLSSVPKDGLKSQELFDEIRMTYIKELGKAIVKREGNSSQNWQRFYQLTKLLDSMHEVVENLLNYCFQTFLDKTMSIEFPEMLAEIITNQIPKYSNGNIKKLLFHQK

[2] = target: T2, human progesterone receptor-A [PRA] isoform (Homo sapiens, UniProt P06401); test: Radioligand binding with human progesterone receptor cytosol ([3H]-progesterone competition); settings: PRA cytosol expressed in insect SF21 cells, [3H]Prog ~0.8 nM, 4° C. overnight; Ki by Cheng-Prusoff, KL ~4.5 nM; read-out: Ki (nM) PR
T2 construct: host or cells: insect SF21 cells (baculovirus)
T2 sequence (P06401 1-769 isoform P06401-2): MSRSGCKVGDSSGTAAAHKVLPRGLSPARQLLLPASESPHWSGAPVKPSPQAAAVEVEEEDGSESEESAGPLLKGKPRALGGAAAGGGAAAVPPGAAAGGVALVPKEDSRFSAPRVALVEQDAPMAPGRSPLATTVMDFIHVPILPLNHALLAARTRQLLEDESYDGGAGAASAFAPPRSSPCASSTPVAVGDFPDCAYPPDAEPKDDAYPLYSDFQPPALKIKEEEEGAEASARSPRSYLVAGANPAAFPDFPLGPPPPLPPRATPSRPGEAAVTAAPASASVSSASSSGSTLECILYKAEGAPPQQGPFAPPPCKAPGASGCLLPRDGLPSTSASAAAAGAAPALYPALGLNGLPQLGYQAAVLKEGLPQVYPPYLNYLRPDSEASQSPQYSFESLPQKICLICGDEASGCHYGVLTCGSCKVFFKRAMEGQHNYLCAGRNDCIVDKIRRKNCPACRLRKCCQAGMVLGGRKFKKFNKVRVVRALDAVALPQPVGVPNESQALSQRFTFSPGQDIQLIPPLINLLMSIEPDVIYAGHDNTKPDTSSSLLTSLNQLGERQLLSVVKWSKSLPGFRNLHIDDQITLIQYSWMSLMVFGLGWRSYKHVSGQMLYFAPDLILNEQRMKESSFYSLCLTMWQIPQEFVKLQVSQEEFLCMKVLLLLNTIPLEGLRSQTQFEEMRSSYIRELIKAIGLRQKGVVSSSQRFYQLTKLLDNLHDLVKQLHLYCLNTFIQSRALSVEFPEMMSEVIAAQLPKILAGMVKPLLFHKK

SMILES | Ki [1] [nM] | Ki [2] [nM]
C=C(CO)CC1Oc2ccc(O)c(OC)c2-c2ccc3c(c21)C(C)=CC(C)(C)N3 (stereo not drawn) [Example 280, 2,5-Dihydro-9-hydroxy-10-methoxy-2,2,4-trimethyl-5-(2-hydroxymethyl-3-propenyl)-1H-[1]benzopyrano[3,4-f]quinoline] | 1.6 | ≥ 10000
COC(=O)CC1Oc2ccc(O)c(OC)c2-c2ccc3c(c21)C(C)=CC(C)(C)N3 (stereo not drawn) [Example 281, Methyl 2-[2,5-Dihydro-9-hydroxy-10-methoxy-2,2,4-trimethyl-1H-[1]benzopyrano[3,4-f]-5-quinoline]acetate] | 0.84 | 526
C/C=C\CC1Oc2ccc(O)c(OC)c2-c2ccc3c(c21)C(C)=CC(C)(C)N3 (stereo not drawn) [Example 282, (Z)2,5-Dihydro-9-hydroxy-10-methoxy-2,2,4-trimethyl-5-(2-butenyl)-1H-[1]benzopyrano[3,4-f]quinoline] | 0.5 | 42
COc1c(O)ccc2c1-c1ccc3c(c1C(CC=C(C)C)O2)C(C)=CC(C)(C)N3 (stereo not drawn) [Example 283, 2,5-Dihydro-9-hydroxy-10-methoxy-2,2,4-trimethyl-5-(3-methyl-2-butenyl)-1H-[1]benzopyrano[3,4-f]quinoline] | 1.1 | 60.4
COc1c(O)ccc2c1-c1ccc3c(c1[C@@H]([C@H]1C=CCCC1)O2)C(C)=CC(C)(C)N3 [Example 285] | 436 | 3760
COc1c(O)ccc2c1-c1ccc3c(c1[C@@H]([C@@H]1C=CCC1)O2)C(C)=CC(C)(C)N3 [Example 286] | 64 | 3030
COc1c(O)ccc2c1-c1ccc3c(c1[C@@H]([C@H]1C=CCC1)O2)C(C)=CC(C)(C)N3 [Example 287] | 346 | 3500
C=C(C)CC1Oc2ccc(O)c(OC)c2-c2ccc3c(c21)C(C)=CC(C)(C)N3 (stereo not drawn) [Example 289, 2,5-Dihydro-9-hydroxy-10-methoxy-2,2,4-trimethyl-5-(2-methyl-3-propenyl)-1H-[1]benzopyrano[3,4-f]quinoline] | 0.73 | 260
C=CCC1Oc2ccc(OC)c(OC)c2-c2ccc3c(c21)C(C)=CC(C)(C)N3 (stereo not drawn) [Example 290, 9,10-Dimethoxy-5-(3-propenyl)-2,2,4-trimethyl-1H-2,5-dihydro-[1]benzopyrano[3,4-f]quinoline] | 12.1 | 611
C=CCC1Oc2ccc(OCC)c(OC)c2-c2ccc3c(c21)C(C)=CC(C)(C)N3 (stereo not drawn) [Example 292, 10-Methoxy-9-ethoxy-5-(3-propenyl)-2,2,4-trimethyl-1H-2,5-dihydro-[1]benzopyrano[3,4-f]quinoline] | 487 | 8340
C#CCOc1ccc2c(c1OC)-c1ccc3c(c1C(CC=C)O2)C(C)=CC(C)(C)N3 (stereo not drawn) [Example 294, 10-Methoxy-9-(3-propynyloxy)-5-(3-propenyl)-2,2,4-trimethyl-1H-2,5-dihydro[1]benzopyrano[3,4-f]quinoline] | 13.8 | 1810
C=CCC1Oc2ccc(OC(C)=O)c(OC)c2-c2ccc3c(c21)C(C)=CC(C)(C)N3 (stereo not drawn) [Example 295, 2,5-Dihydro-9-acetoxy-10-methoxy-2,2,4-trimethyl-5-(2-propenyl)-1H-[1]benzopyrano[3,4-f]quinoline] | 0.67 | 59.3
C=CCC1Oc2ccc(OC(=O)CCC(=O)N(C)C)c(OC)c2-c2ccc3c(c21)C(C)=CC(C)(C)N3 (stereo not drawn) [Example 296, 2,5-Dihydro-9-(4-N,N-dimethylamino-4-oxo-butanoyloxy)-10-methoxy-2,2,4-trimethyl-5(2-propenyl)-1H-[1]benzopyrano[3,4-f]quinoline] | 0.63 | 476
COc1ccc(Br)c2c1-c1ccc3c(c1C(C1C=CCCC1)O2)C(C)=CC(C)(C)N3 (stereo not drawn) [Example 297] | 4.7 | 4840
C=CCC1Oc2c(Br)ccc(OC)c2-c2ccc3c(c21)C(C)=CC(C)(C)N3 (stereo not drawn) [Example 298, 10-Methoxy-7-bromo-5-(3-propenyl)-2,2,4-trimethyl-1H-2,5-dihydro-[1]benzopyrano[3,4-f]quinoline] | 4.1 | ≥ 10000
COc1ccc(Br)c2c1-c1ccc3c(c1C(C1C=C(C)CCC1)O2)C(C)=CC(C)(C)N3 (stereo not drawn) [Example 299] | 5.4 | 2900
C=CCC1Oc2ccc(Br)c(OC)c2-c2ccc3c(c21)C(C)=CC(C)(C)N3 (stereo not drawn) [Example 300, 10-Methoxy-9-bromo-5-(3-propenyl)-2,2,4-trimethyl-1H-2,5-dihydro-[1]benzopyrano[3,4-f]quinoline] | 5.3 | 34.4
C=CCC1Oc2c(Br)cc(Br)c(OC)c2-c2ccc3c(c21)C(C)=CC(C)(C)N3 (stereo not drawn) [Example 301, 7,9-Dibromo-10-methoxy-5-(3-propenyl)-2,2,4-trimethyl-1H-2,5-dihydro[1]benzopyrano[3,4-f]quinoline] | 16 | 113
COc1c(Br)cc(Br)c2c1-c1ccc3c(c1C(C1C=CCCC1)O2)C(C)=CC(C)(C)N3 (stereo not drawn) [Example 302, 7,9-Dibromo-5-[cyclohexen-3-yl]-10-methoxy-2,2,4-trimethyl-2,5-dihydro-1H-[1]benzopyrano[3,4-f]quinoline] | 5.9 | 99

Continued, values first:

Ki [1] [nM] | Ki [2] [nM] | SMILES
4.9 | 58.5 | COc1c(Br)cc(Br)c2c1-c1ccc3c(c1C(C1C=C(C)CCC1)O2)C(C)=CC(C)(C)N3 (stereo not drawn) [Example 303]
34.5 | 681 | C=CCC1Oc2c(C=C)ccc(OC)c2-c2ccc3c(c21)C(C)=CC(C)(C)N3 (stereo not drawn) [Example 304, 10-Methoxy-7-(2-ethenyl)-5-(3-propenyl)-2,2,4-trimethyl-1H-2,5-dihydro-[1]benzopyrano[3,4-f]quinoline]
2 | 6920 | C=CCC1Oc2c(C)ccc(OC)c2-c2ccc3c(c21)C(C)=CC(C)(C)N3 (stereo not drawn) [Example 305, 10-Methoxy-7-methyl-5-(3-propenyl)-2,2,4-trimethyl-1H-2,5-dihydro-[1]benzopyrano[3,4-f]quinoline]
717 | 4460 | C=CCC1Oc2c(C(C)=O)ccc(OC)c2-c2ccc3c(c21)C(C)=CC(C)(C)N3 (stereo not drawn) [Example 306, 10-Methoxy-7-acetyl-5-(3-propenyl)-2,2,4-trimethyl-1H-2,5-dihydro-[1]benzopyrano[3,4-f]quinoline]
50.8 | 960 | C=CCC1Oc2c(C)cc(C)c(OC)c2-c2ccc3c(c21)C(C)=CC(C)(C)N3 (stereo not drawn) [Example 308, 10-Methoxy-7-methyl-9-methyl-5-(3-propenyl)-2,2,4-trimethyl-1H-2,5-dihydro-[1]benzopyrano[3,4-f]quinoline]
1.7 | ≥ 10000 | COc1cccc2c1-c1ccc3c(c1C(c1cccc(CCO)c1)O2)C(C)=CC(C)(C)N3 (stereo not drawn) [Example 314, 2,5-Dihydro-10-methoxy-5-(3-(2-hydroxyethyl)phenyl)-2,2,4-trimethyl-1H-[1]benzopyrano[3,4-f]quinoline]
13 | ≥ 10000 | COc1cccc2c1-c1ccc3c(c1C(c1cccc(CCOS(C)(=O)=O)c1)O2)C(C)=CC(C)(C)N3 (stereo not drawn) [Example 315, 2,5-Dihydro-10-methoxy-5-(3-(2-methanesulfonyloxyethyl)phenyl)-2,2,4-trimethyl-1H-[1]benzopyrano[3,4-f]quinoline]
11 | ≥ 10000 | COc1cccc2c1-c1ccc3c(c1C(c1cccc(CCSC)c1)O2)C(C)=CC(C)(C)N3 (stereo not drawn) [Example 316, 2,5-Dihydro-10-methoxy-5-(3-(2-methythioethyl)phenyl)-2,2,4-trimethyl-1H-[1]benzopyrano[3,4-f]quinoline]
